How the values were obtained:
in vitro [1] = assay: in vitro; design: Viability of infected HeLa host cells, resazurin conversion, bulk resorufin fluorescence relative to DMSO; settings: human, hela cells; bulk resorufin, mean of 2
in vitro [2] = settings: human, hela cells, % viability
[3] = tested on: T1, CTL2-GFP (C. trachomatis L2/434/Bu, GFP-expressing); assay: microbe, parasite or virus in culture; design: Intracellular C. trachomatis growth in HeLa cells, bulk GFP fluorescence relative to DMSO; settings: Chlamydia trachomatis, HeLa, 28.5 h; bulk GFP, mean of 2; read-out: % of control remaining
T1 construct: L2/434/Bu, GFP-expressing
Description: MICs were calculated as described above.

[4] = tested on: T2, C. trachomatis L2/434/Bu expressing GFP (CTL2-GFP); assay: microbe, parasite or virus in culture; design: C. trachomatis total inclusion area by high-content imaging, normalised to DMSO; settings: Chlamydia trachomatis, HeLa, 28.5 h; total inclusion area; read-out: % of control remaining
T2 construct: L2/434/Bu GFP intracellular growth in HeLa cells
Summary of the method: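 Read-out combines bulk fluorescence and imaging: GFP tracks chlamydial growth, resorufin tracks host cell viability. Plates were then fixed and Hoechst-stained so inclusions and nuclei could be imaged and counted per well.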

Compound | viability at 28.5 h, 1 µM (in vitro [1]) [%] | viability at 28.5 h, 5 µM (in vitro [1]) [%] | viability at 28.5 h, 10 µM (in vitro [1]) [%] | viability at 28.5 h, 10 µM (in vitro [2]) [%] | activity at 1 µM [3] [%] | activity at 5 µM [3] [%] | activity at 10 µM [3] [%] | activity at 1 µM [4] [%] | activity at 5 µM [4] [%] | activity at 10 µM [4] [%]
CN1CCCN(c2ccc(NS(=O)(=O)c3cccc(F)c3)c3ccccc23)CC1 [CBK200010C] | 94.4 | 100 | 95.1 | 84.9 | 108 | 66.2 | 43.7 | 77.8 | 43.7 | 26.8
C/C(Nc1ccc(S(=O)(=O)Nc2nccc(C)n2)cc1)=C1\C(=O)N(c2nc3ccccc3s2)N=C1C(F)(F)F [CBK263002] | 93.4 | 89.8 | 88.6 | 90.1 | 31.6 | 15.5 | 14.3 | 62.8 | 27.5 | 22.8
CCOc1ccsc1C(=O)NC1Cc2ccccc2C1 [CBK200359] | 104 | 96.4 | 93 | 82.6 | 57.4 | 3.62 | 6.67 | 88.7 | 0.493 | 0.44
COc1cc(N)c2ncccc2c1 [CBK011972C] | 101 | 81.1 | 80 | 77.7 | 90.6 | 23.4 | 7.94 | 85 | 10.9 | 1.09
Cc1noc(NS(=O)(=O)c2ccc(N/C=C\C(=O)c3cccnc3)cc2)c1C [CBK264285] | 106 | 103 | 104 | 102 | 72.6 | 13.6 | 11.8 | 69.7 | 26.3 | 17.9
CC1=NN(c2ccccc2)C(=O)/C1=C/Nc1ccc(S(=O)(=O)Nc2nc(C)cc(C)n2)cc1 [CBK262368] | 96.6 | 93.9 | 96.8 | 106 | 46.9 | 21 | 13.7 | 70.2 | 28.2 | 14.1
Cc1ccc(S(=O)(=O)Nc2cc(SCC(=O)O)c(O)c3ccccc23)cc1 [CBK265708] | 103 | 99.6 | 97.8 | 87.1 | 92.1 | 51.3 | 33 | 75.1 | 34.7 | 13.4
CC1=NN(c2ccc(C)cc2)C(=O)/C1=C\Nc1ccc(S(=O)(=O)Nc2nc(C)cc(C)n2)cc1 [CBK262398] | 94.6 | 99.4 | 118 | 92.8 | 83.6 | 16.3 | 2.4 | 91.7 | 40.5 | 18
O=C(Nc1ccc(F)c(F)c1)NC1CCC2CN(CCOc3ccccc3)CC2C1 (stereo not drawn) [CBK083365T] | 89.3 | 86.5 | 88.8 | 105 | 34.9 | 8.25 | 5.26 | 35.6 | 0.438 | 0.173
COc1cccc(C(=O)/C=C\Nc2ccc(S(=O)(=O)Nc3onc(C)c3C)cc2)c1 [CBK264206] | 106 | 104 | 114 | 93.4 | 83.7 | 25.4 | 8.04 | 68.5 | 28.9 | 19
Cc1ccc(C(=O)NC2CCCC2)cc1[N+](=O)[O-] [CBK001993] | 112 | 110 | 104 | 102 | 123 | 123 | 110 | 116 | 89.8 | 50.4
O=C1C(NCCO)=C(Nc2cccc(Cl)c2)C(=O)c2ccccc21 [CBK264323] | 102 | 98.6 | 88.4 | 91.7 | 93 | 48.6 | 35.5 | 90.7 | 34.6 | 14.8
CCC(Sc1nnc2c(n1)[nH]c1ccccc12)C(=O)N1c2ccccc2Sc2ccccc21 (stereo not drawn) [CBK263929] | 94.1 | 89.8 | 88.6 | 95.1 | 60.4 | 52.9 | 44.5 | 32.8 | 30.8 | 13.4
CC(C)(CN)CN(Cc1ccc(-c2ccccc2)cc1)C(=O)Nc1ccccc1C(C)(C)C [CBK002476C] | 118 | 114 | 63.6 | 94.2 | 98.7 | 75.3 | 16.4 | 114 | 50.1 | 2.01
Cc1cc(C)nc(NS(=O)(=O)c2ccc(NC(=O)N3c4ccccc4Sc4ccccc43)cc2)n1 [CBK263922] | 92.3 | 90.2 | 89.4 | 101 | 115 | 67.1 | 28.2 | 112 | 51.2 | 28.5
O=c1c2cnc3ccnn3c2ccn1C1CCCC1 [CBK288074] | 103 | 106 | 109 | 107 | 109 | 72.3 | 2.35 | 65.5 | 60.4 | 4.02
Cc1cc2nc(-c3ccccn3)[nH]c2cc1C [CBK000122] | 94.7 | 90.3 | 89.1 | 119 | 129 | 36.8 | 14.3 | 97.4 | 31 | 9.06
Fc1cccc(F)c1OCCOc1nc(N2CCNCC2)ccc1C(F)(F)F [CBK003977A] | 92.3 | 90.5 | 89.4 | 87 | 86.2 | 37.8 | 27.8 | 53.4 | 9.38 | 1.96
